From US20220033405A1, “PHARMACEUTICAL COMPOSITION FOR PREVENTING OR TREATING CANCER CONTAINING PLK1 INHIBITOR AS ACTIVE INGREDIENT” (NATIONAL CANCER CENTER, priority 2018, published 2022)

Assay: Toxicity test, histopathological analysis of organs
Format: in vivo, mouse
Details: 1, 5 and 10 mg/kg intraperitoneally 3 times weekly, 2 weeks
Protocol: Compound 4 (M21) was diluted in 300 μl of PBS and intraperitoneally injected 3 times weekly at 1 mg/kg, 5 mg/kg and 10 mg/kg per body weight of a mouse, respectively, and DMSO diluted in 300 μl of PBS was intraperitoneally injected at 3% in the control. After 2 weeks, the lungs, heart, liver, kidneys, spleen and skin were removed by sacrificing mice, and fixed in a formalin solution.

Cn1c2nc(=O)[nH]c(=O)c-2nc2cc(C(F)(F)F)ccc21 [Compound 4, 10-methyl-7-(trifluoromethyl)-2H,3H,4H,10H-benzo[g]pteridine-2,4-dione]
histopathological analysis of lungs, heart, liver, kidneys, spleen and skin: No change by separate acute toxicity was observed
